# Measured values reported in patent publication US20260262643A1, “HERBICIDAL BENZOXAZINES” (FMC CORPORATION, priority 2022, published 2026).
# Key:
# green foxtail [1] = assay: Test C postemergence; assay type: in vivo, Setaria viridis; conditions: 10 days
# Method in brief: (§1)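 Test material, in non-phytotoxic solvent with surfactant, was sprayed on the soil directly after seeding (preemergence) or on young plants of 2–10 cm with one to two leaves (postemergence). Greenhouse, 10 days; 0–100 visual control scale.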
# rice = assay: Test D flooded paddy test; assay type: in vivo, Oryza sativa; conditions: 250 g ai/ha, applied to paddy water, visual rating after 13 to 14 days, scale 0 to 100 (0 no effect, 100 complete control)
# Method in brief: (§2)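 Rating scale 0–100 (0 no effect, 100 complete control), visual, versus controls. Readout at 13–14 days after in-water application to 2-leaf plants in pots flooded 3 cm deep.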
# horseweed = assay: Test C postemergence; assay type: in vivo, Erigeron canadensis; conditions: 10 days
# Method in brief: as §1
# pigweed, palmer [2] = assay: Test C postemergence; assay type: in vivo, Amaranthus palmeri; conditions: 10 days
# Method in brief: as §1
# oat, wild [3] = assay: Test C postemergence; assay type: in vivo, Avena fatua; conditions: 10 days
# Method in brief: as §1
# kochia [4] = assay: Test C preemergence; assay type: in vivo, Bassia scoparia; conditions: 0 to 100 scale (0 no effect, 100 complete control)
# Method in brief: as §1
# ryegrass, Italian = assay: Test C postemergence; assay type: in vivo, Lolium multiflorum; conditions: 10 days
# Method in brief: as §1
# barnyardgrass [5] = assay: Test C preemergence; assay type: in vivo, Echinochloa crusgalli; conditions: 0 to 100 scale (0 no effect, 100 complete control)
# Method in brief: as §1
# wheat [6] = assay: Test C preemergence; assay type: in vivo, Triticum aestivum; conditions: 0 to 100 scale (0 no effect, 100 complete control)
# Method in brief: as §1
# ducksalad = assay: Test D flooded paddy test; assay type: in vivo, Heteranthera limosa; conditions: 250 g ai/ha, applied to paddy water, visual rating after 13 to 14 days, scale 0 to 100 (0 no effect, 100 complete control)
# Method in brief: as §2
# sedge, umbrella = assay: Test D flooded paddy test; assay type: in vivo, Cyperus difformis; conditions: 250 g ai/ha, applied to paddy water, visual rating after 13 to 14 days, scale 0 to 100 (0 no effect, 100 complete control)
# Method in brief: as §2
# blackgrass [7] = assay: Test C postemergence; assay type: in vivo, Alopecurus myosuroides; conditions: 10 days
# Method in brief: as §1
# barnyardgrass [8] = assay: Test C postemergence; assay type: in vivo, Echinochloa crusgalli; conditions: 10 days
# Method in brief: as §1
# oat, wild [9] = assay: Test C preemergence; assay type: in vivo, Avena fatua; conditions: 0 to 100 scale (0 no effect, 100 complete control)
# Method in brief: as §1
# soybean [10] = assay: Test C preemergence; assay type: in vivo, Glycine max; conditions: 0 to 100 scale (0 no effect, 100 complete control)
# Method in brief: as §1
# kochia [11] = assay: Test C postemergence; assay type: in vivo, Bassia scoparia; conditions: 10 days
# Method in brief: as §1
# barnyardgrass [12] = assay: Test D flooded paddy test; assay type: in vivo, Echinochloa crus-galli; conditions: 250 g ai/ha, applied to paddy water, visual rating after 13 to 14 days, scale 0 to 100 (0 no effect, 100 complete control)
# Method in brief: as §2
# soybean [13] = assay: Test C postemergence; assay type: in vivo, Glycine max; conditions: 10 days
# Method in brief: as §1
# wheat [14] = assay: Test C postemergence; assay type: in vivo, Triticum aestivum; conditions: 10 days
# Method in brief: as §1
# blackgrass [15] = assay: Test C preemergence; assay type: in vivo, Alopecurus myosuroides; conditions: 0 to 100 scale (0 no effect, 100 complete control)
# Method in brief: as §1
# corn [16] = assay: Test C postemergence; assay type: in vivo, Zea mays; conditions: 10 days
# Method in brief: as §1
# corn [17] = assay: Test C preemergence; assay type: in vivo, Zea mays; conditions: 0 to 100 scale (0 no effect, 100 complete control)
# Method in brief: as §1
# pigweed, palmer [18] = assay: Test C preemergence; assay type: in vivo, Amaranthus palmeri; conditions: 0 to 100 scale (0 no effect, 100 complete control)
# Method in brief: as §1
# ragweed [19] = assay: Test C postemergence; assay type: in vivo, Ambrosia artemisiifolia; conditions: 10 days
# Method in brief: as §1
# galium = assay: Test C postemergence; assay type: in vivo, Galium aparine; conditions: 10 days
# Method in brief: as §1
# green foxtail [20] = assay: Test C preemergence; assay type: in vivo, Setaria viridis; conditions: 0 to 100 scale (0 no effect, 100 complete control)
# Method in brief: as §1
# ragweed [21] = assay: Test C preemergence; assay type: in vivo, Ambrosia artemisiifolia; conditions: 0 to 100 scale (0 no effect, 100 complete control)
# Method in brief: as §1
# [22] = 125 g ai/ha, postemergence, 0 to 100 scale, 0 no effect, 100 complete control
# [23] = Postemergence, 500 g ai/ha, visual 0 to 100 scale (0 no effect, 100 complete control)
# [24] = Preemergence, 500 g ai/ha, visual rating after 10 days
# [25] = Test C, preemergence, 125 g ai/ha
compound,measurement,setting,value
CSCc1ncn(-c2ccc(C)c(C(=O)N3C[C@H](C)Oc4c(Cl)cccc43)c2)n1 [Compound 178],"Plant response rating, Foxtail, Green",green foxtail [1]; [22],20
same,"Plant response rating, Foxtail, Green",green foxtail [1]; [23],90
same,"Plant response rating, Rice (Flood)",rice,15
same,"Plant response rating, Horseweed",horseweed; [22],70
same,"Plant response rating, Horseweed",horseweed; [23],90
same,"Plant response rating, Pigweed, Palmer","pigweed, palmer [2]; [22]",90
same,"Plant response rating, Pigweed, Palmer","pigweed, palmer [2]; [23]",90
same,"Plant response rating, Oat, Wild","oat, wild [3]; [22]",30
same,"Plant response rating, Oat, Wild","oat, wild [3]; [23]",90
same,"Plant response rating, Kochia",kochia [4]; [24],100
same,Kochia plant response rating,kochia [4]; [25],90
same,"Plant response rating, Ryegrass, Italian","ryegrass, Italian; [22]",80
same,"Plant response rating, Ryegrass, Italian","ryegrass, Italian; [23]",100
same,"Plant response rating, Barnyardgrass",barnyardgrass [5]; [24],90
same,Barnyardgrass plant response rating,barnyardgrass [5]; [25],20
same,"Plant response rating, Wheat",wheat [6]; [24],70
same,Wheat plant response rating,wheat [6]; [25],30
same,"Plant response rating, Ducksalad (Flood)",ducksalad,95
same,"Plant response rating, Sedge, Umbrella (Flood)","sedge, umbrella",90
same,"Plant response rating, Blackgrass",blackgrass [7]; [22],60
same,"Plant response rating, Blackgrass",blackgrass [7]; [23],90
same,"Plant response rating, Barnyardgrass",barnyardgrass [8]; [22],10
same,"Plant response rating, Barnyardgrass",barnyardgrass [8]; [23],60
same,"Plant response rating, Oat, Wild","oat, wild [9]; [24]",90
same,"Oat, Wild plant response rating","oat, wild [9]; [25]",30
same,"Plant response rating, Soybean",soybean [10]; [24],80
same,Soybean plant response rating,soybean [10]; [25],60
same,"Plant response rating, Kochia",kochia [11]; [22],80
same,"Plant response rating, Kochia",kochia [11]; [23],90
same,"Plant response rating, Barnyardgrass (Flood)",barnyardgrass [12],15
same,"Plant response rating, Soybean",soybean [13]; [22],100
same,"Plant response rating, Soybean",soybean [13]; [23],100
same,"Plant response rating, Wheat",wheat [14]; [22],20
same,"Plant response rating, Wheat",wheat [14]; [23],50
same,"Plant response rating, Blackgrass",blackgrass [15]; [24],90
same,Blackgrass plant response rating,blackgrass [15]; [25],60
same,"Plant response rating, Corn",corn [16]; [22],60
same,"Plant response rating, Corn",corn [16]; [23],90
same,"Plant response rating, Corn",corn [17]; [24],50
same,Corn plant response rating,corn [17]; [25],20
same,"Plant response rating, Pigweed, Palmer","pigweed, palmer [18]; [24]",100
same,"Pigweed, Palmer plant response rating","pigweed, palmer [18]; [25]",90
same,"Plant response rating, Ragweed",ragweed [19]; [22],60
same,"Plant response rating, Ragweed",ragweed [19]; [23],90
same,"Plant response rating, Galium",galium; [22],100
same,"Plant response rating, Galium",galium; [23],100
same,"Plant response rating, Foxtail, Green",green foxtail [20]; [24],100
same,"Foxtail, Green plant response rating",green foxtail [20]; [25],100
same,"Plant response rating, Ragweed",ragweed [21]; [24],50
same,Ragweed plant response rating,ragweed [21]; [25],0
